Measurements from US8106055B2, “Substituted amide compounds” (Gruenenthal GmbH, priority 2007, dated 2012).

biological target: T1, bradykinin 1 receptor (B1R) of the rat (Rattus norvegicus, UniProt P97583); test: Functional investigation on the rat bradykinin 1 receptor (B1R), Ca2+ FLIPR assay in CHO K1 rB1R cells; format: cell-based; conditions: B1R antagonism rat; test substance 10 μM; Ca2+ FLIPR, CHO K1 rB1R cells
T1 construct: expressed in transfected cells; host or cells: CHO K1 cells
T1 sequence (P97583 1-337): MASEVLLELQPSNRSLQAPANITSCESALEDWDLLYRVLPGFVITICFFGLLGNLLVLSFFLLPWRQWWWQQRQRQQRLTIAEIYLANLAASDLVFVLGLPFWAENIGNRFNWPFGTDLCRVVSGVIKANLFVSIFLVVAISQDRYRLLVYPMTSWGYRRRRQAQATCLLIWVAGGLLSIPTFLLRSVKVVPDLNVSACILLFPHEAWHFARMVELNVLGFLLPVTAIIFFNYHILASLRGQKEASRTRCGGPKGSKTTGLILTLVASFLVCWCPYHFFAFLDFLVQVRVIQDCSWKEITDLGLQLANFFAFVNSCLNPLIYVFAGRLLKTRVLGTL
Procedure, shortened: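 Fluo-4 Ca2+ readout, peak fluorescence. Stable CHO K1 transfectants; compound pre-incubated 10-20 min, then EC80 agonist—Lys-Des-Arg9-BK for hB1R, Des-Arg9-BK for rB1R. % inhibition vs maximal inhibition; IC50 from multiple concentrations, duplicate/triplicate, ≥2 independent runs.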

Going from `CN(C)C(c1ccc(Cl)cc1)C1CCC(CCNC(=O)COCCN(C)S(=O)(=O)c2ccc(F)cc2)CC1` (stereo not drawn) [Example 241] to `CN(C)C(c1ccc(Cl)cc1)C1CCC(CNC(=O)COCCN(C)S(=O)(=O)c2ccc(F)cc2)CC1` (stereo not drawn) [Example 263], the “B1R Ant. r [10 μM] % Inhibition” value rises from 8% to 32%.

First: CN(C)C(c1cccc(F)c1)C1CCC(NC(=O)COC2CCCN(S(=O)(=O)c3ccccc3)C2)CC1 (stereo not drawn) [Example 277]
Second: CN(C)C(c1cccc(F)c1)C1CCC(NC(=O)COC2CCN(S(=O)(=O)c3ccccc3)C2)CC1 (stereo not drawn) [Example 271]
The “B1R Ant. r [10 μM] % Inhibition” value of the first is higher: 4% for the first, −13% for the second.

First: CCN(CCOCC(=O)NCCC1CCC(C(c2cccc(F)c2)N(C)C)CC1)S(=O)(=O)c1c(C)cc(OC)c(C)c1C (stereo not drawn) [Example 209]
Second: CCN(CCOCC(=O)NCC1CCC(C(c2ccccc2)N(C)C)CC1)S(=O)(=O)c1c(C)cc(OC)c(C)c1C (stereo not drawn) [Example 231]
The “B1R Ant. r [10 μM] % Inhibition” value of the first is higher: 60% for the first, 29% for the second.

Going from `COc1ccc(S(=O)(=O)N2CCCCC2CCOCC(=O)NCC2CCC(C(c3cccc(F)c3)N(C)C)CC2)cc1` (stereo not drawn) [Example 203] to `COc1ccc(S(=O)(=O)N2CCCC2COCC(=O)NCCC2CCC(C(c3cccc(F)c3)N(C)C)CC2)cc1` (stereo not drawn) [Example 224], the “B1R Ant. r [10 μM] % Inhibition” value falls from 55% to 47%.

Going from `COc1cc(C)c(S(=O)(=O)N(C)CCOCC(=O)NC2CCC(C(c3cccc(F)c3)N(C)C)CC2)c(C)c1` (stereo not drawn) [Example 228] to `COc1cc(C)c(S(=O)(=O)N(C)CCOCC(=O)NC2CCC(C(c3ccccc3)N(C)C)CC2)c(C)c1` (stereo not drawn) [Example 239], the “B1R Ant. r [10 μM] % Inhibition” value falls from 99% to 97%.

Going from `CN(C)C(c1ccccc1)C1CCC(NC(=O)COCC2CCCN2S(=O)(=O)c2c(Cl)cc(Cl)cc2Cl)CC1` (stereo not drawn) [Example 612, N-[4-(Dimethylaminophenylmethyl)-cyclohexyl]-2-[1-(2,4,6-trichlorobenzenesulfonyl)-pyrrolidin-2-ylmethoxy]-acetamide] to `CN(C)C(c1cccc(F)c1)C1CCC(NC(=O)COCC2CCCN2S(=O)(=O)c2ccc(Cl)c(Cl)c2)CC1` (stereo not drawn) [Example 211], the “B1R Ant. r [10 μM] % Inhibition” value falls from 64% to 10%.

Compared with `Cc1cc(C)c(S(=O)(=O)N(C)CCOCC(=O)NC2CCC(C(c3cccs3)N(C)C)CC2)c(C)c1` (stereo not drawn) [Example 235], `COc1ccc(S(=O)(=O)N(C)CCOCC(=O)NC2CCC(C(c3cccs3)N(C)C)CC2)cc1OC` (stereo not drawn) [Example 206] is higher in “B1R Ant. r [10 μM] % Inhibition” value: −8% for the first, 20% for the second.

Compared with `COc1cc(C)c(S(=O)(=O)N(CCOCC(=O)NCC2CCC(C(c3ccccc3)N(C)C)CC2)Cc2ccccc2)c(C)c1C` (stereo not drawn) [Example 201], `COc1cc(C)c(S(=O)(=O)N(CCOCC(=O)NCCC2CCC(C(c3cccs3)N(C)C)CC2)Cc2ccccc2)c(C)c1C` (stereo not drawn) [Example 254] is lower in “B1R Ant. r [10 μM] % Inhibition” value: 7% for the first, −1% for the second.

Compared with `CN(C)C(c1cccc(F)c1)C1CCC(CNC(=O)COC2CCN(S(=O)(=O)c3ccc(Cl)cc3)C2)CC1` (stereo not drawn) [Example 258], `CN(C)C(c1cccc(F)c1)C1CCC(CNC(=O)COC2CCN(S(=O)(=O)c3ccc(F)cc3)C2)CC1` (stereo not drawn) [Example 275] is higher in “B1R Ant. r [10 μM] % Inhibition” value: 12% for the first, 17% for the second.

Going from `CN(C)C(c1cccc(F)c1)C1CCC(CCNC(=O)COC2CCN(S(=O)(=O)c3ccc(Cl)cc3Cl)C2)CC1` (stereo not drawn) [Example 259] to `CN(C)C(c1cccc(F)c1)C1CCC(CNC(=O)COC2CCN(S(=O)(=O)c3ccc(Cl)cc3Cl)C2)CC1` (stereo not drawn) [Example 225], the “B1R Ant. r [10 μM] % Inhibition” value falls from 25% to 17%.

Compared with `Cc1ccc(S(=O)(=O)N2CCC(OCC(=O)NCCC3CCC(C(c4cccs4)N(C)C)CC3)C2)cc1` (stereo not drawn) [Example 272], `CN(C)C(c1cccs1)C1CCC(CCNC(=O)COC2CCN(S(=O)(=O)c3ccccc3)CC2)CC1` (stereo not drawn) [Example 230] is lower in “B1R Ant. r [10 μM] % Inhibition” value: 32% for the first, −1% for the second.

First: COc1cc(C)c(S(=O)(=O)N2CCCC(OCC(=O)NCCC3CCC(C(c4cccc(F)c4)N(C)C)CC3)C2)c(C)c1C (stereo not drawn) [Example 221]
Second: COc1cc(C)c(S(=O)(=O)N2CCC(OCC(=O)NCCC3CCC(C(c4cccc(F)c4)N(C)C)CC3)CC2)c(C)c1C (stereo not drawn) [Example 232]
The “B1R Ant. r [10 μM] % Inhibition” value of the first is higher: 17% for the first, 5% for the second.

Compared with `Cc1ccc(S(=O)(=O)N(C)CCOCC(=O)NCC2CCC(C(c3cccc(F)c3)N(C)C)CC2)cc1` (stereo not drawn) [Example 227], `CN(C)C(c1cccc(F)c1)C1CCC(CCNC(=O)COCCN(C)S(=O)(=O)c2ccc(F)cc2)CC1` (stereo not drawn) [Example 218] is higher in “B1R Ant. r [10 μM] % Inhibition” value: 12% for the first, 28% for the second.

First: CN(C)C(c1cccs1)C1CCC(CCNC(=O)COC2CCCCC2N(C)S(=O)(=O)c2ccc(Cl)c(Cl)c2)CC1 (stereo not drawn) [Example 214]
Second: CN(C)C(c1ccc(Cl)cc1)C1CCC(CNC(=O)COC2CCCCC2N(C)S(=O)(=O)c2ccc(Cl)c(Cl)c2)CC1 (stereo not drawn) [Example 269]
The “B1R Ant. r [10 μM] % Inhibition” value of the first is higher: 19% for the first, −3% for the second.

`CN(C)C(c1cccs1)C1CCC(CNC(=O)COC2CCN(S(=O)(=O)c3ccccc3)CC2)CC1` (stereo not drawn) [Example 276] and `CN(C)C(c1ccccc1)C1CCC(CNC(=O)COC2CCN(S(=O)(=O)c3ccc(F)cc3)C2)CC1` (stereo not drawn) [Example 219] are the same in “B1R Ant. r [10 μM] % Inhibition” value: 14% for the first, 14% for the second.

First: COc1ccc(S(=O)(=O)N2CCCC2COCC(=O)NC2CCC(C(c3cccc(F)c3)N(C)C)CC2)cc1 (stereo not drawn) [Example 268]
Second: COc1ccc(S(=O)(=O)N2CCCCC2COCC(=O)NC2CCC(C(c3cccc(F)c3)N(C)C)CC2)cc1 (stereo not drawn) [Example 255]
The “B1R Ant. r [10 μM] % Inhibition” value of the first is lower: 25% for the first, 47% for the second.

Compared with `Cc1cc(C)c(S(=O)(=O)N2CCC(OCC(=O)NCCC3CCC(C(c4cccc(F)c4)N(C)C)CC3)C2)c(C)c1` (stereo not drawn) [Example 264], `COc1cc(C)c(S(=O)(=O)N2CCC(OCC(=O)NCC3CCC(C(c4cccc(F)c4)N(C)C)CC3)C2)c(C)c1` (stereo not drawn) [Example 265] is higher in “B1R Ant. r [10 μM] % Inhibition” value: 59% for the first, 97% for the second.

Going from `CN(C)C(c1cccc(F)c1)C1CCC(NC(=O)COC2CCN(S(=O)(=O)c3ccc(Cl)cc3)C2)CC1` (stereo not drawn) [Example 204] to `CN(C)C(c1cccc(F)c1)C1CCC(NC(=O)COCCN(C)S(=O)(=O)c2ccc(F)cc2)CC1` (stereo not drawn) [Example 205], the “B1R Ant. r [10 μM] % Inhibition” value rises from −13% to 5%.

Going from `CN(C)C(c1cccc(F)c1)C1CCC(NC(=O)COCCN(C)S(=O)(=O)c2c(Cl)cc(Cl)cc2Cl)CC1` (stereo not drawn) [Example 208] to `CN(C)C(c1cccc(F)c1)C1CCC(NC(=O)COCCN(C)S(=O)(=O)c2ccc(Cl)cc2Cl)CC1` (stereo not drawn) [Example 217], the “B1R Ant. r [10 μM] % Inhibition” value rises from 25% to 47%.

Going from `COc1ccc(S(=O)(=O)N(C)CCOCC(=O)NC2CCC(C(c3cccc(F)c3)N(C)C)CC2)cc1` (stereo not drawn) [Example 250] to `CN(C)C(c1cccc(F)c1)C1CCC(NC(=O)COCCN(C)S(=O)(=O)c2ccc(OC(F)(F)F)cc2)CC1` (stereo not drawn) [Example 246], the “B1R Ant. r [10 μM] % Inhibition” value falls from 38% to 15%.

Compared with `CN(C)C(c1ccc(F)cc1)C1CCC(CNC(=O)COCCN(C)S(=O)(=O)c2ccc(Cl)cc2Cl)CC1` (stereo not drawn) [Example 249], `CN(C)C(c1ccccc1)C1CCC(CNC(=O)COCCN(C)S(=O)(=O)c2c(Cl)cc(Cl)cc2Cl)CC1` (stereo not drawn) [Example 614, N-[4-(dimethylaminophenylmethyl)-cyclohexylmethyl]-2-{2-[(2,4,6-trichlorobenzenesulfonyl)-methylamino]-ethoxy}-acetamide] is lower in “B1R Ant. r [10 μM] % Inhibition” value: 55% for the first, 29% for the second.

Compared with `COc1cc(C)c(S(=O)(=O)N2CCN(CCOCC(=O)NC3CCC(C(c4ccc(F)cc4)N(C)C)CC3)CC2)c(C)c1C` (stereo not drawn) [Example 222], `COc1cc(C)c(S(=O)(=O)N2CCN(CCOCC(=O)NCC3CCC(C(c4cccc(F)c4)N(C)C)CC3)CC2)c(C)c1C` (stereo not drawn) [Example 223] is lower in “B1R Ant. r [10 μM] % Inhibition” value: 10% for the first, −5% for the second.

First: CN(C)C(c1ccccc1)C1CCC(NC(=O)COCC2CCCN2S(=O)(=O)c2c(Cl)cc(Cl)cc2Cl)CC1 (stereo not drawn) [Example 611, N-[4-(Dimethylaminophenylmethyl)-cyclohexyl]-2-[1-(2,4,6-trichlorobenzenesulfonyl)-pyrrolidin-2-ylmethoxy]-acetamide]
Second: COc1ccc(S(=O)(=O)N2CCCCC2COCC(=O)NC2CCC(C(c3cccs3)N(C)C)CC2)cc1OC (stereo not drawn) [Example 261]
The “B1R Ant. r [10 μM] % Inhibition” value of the first is higher: 68% for the first, −3% for the second.

Compared with `COc1ccc(S(=O)(=O)N2CCCCC2CCOCC(=O)NC2CCC(C(c3ccc(F)cc3)N(C)C)CC2)cc1` (stereo not drawn) [Example 212], `COc1ccc(S(=O)(=O)N2Cc3ccccc3CC2COCC(=O)NC2CCC(C(c3ccc(F)cc3)N(C)C)CC2)cc1` (stereo not drawn) [Example 234] is lower in “B1R Ant. r [10 μM] % Inhibition” value: 41% for the first, 20% for the second.

First: COc1cc(C)c(S(=O)(=O)N2CCC(OCC(=O)NCC3CCC(C(c4cccc(F)c4)N(C)C)CC3)C2)c(C)c1C (stereo not drawn) [Example 252]
Second: CN(C)C(c1ccccc1)C1CCC(CNC(=O)COCC2CCCN(S(=O)(=O)c3ccccc3)C2)CC1 (stereo not drawn) [Example 129, N((4((dimethylamino)(phenyl)methyl)cyclohexyl)methyl)-2-((1-(phenylsulfonyl)piperidin-3-yl)methoxy)acetamide]
The “B1R Ant. r [10 μM] % Inhibition” value of the first is higher: 4% for the first, 0% for the second.

same assay, conditions: CHO-K1, B1R antagonism rat; test substance 10 μM; Ca2+ FLIPR, CHO K1 rB1R cells; read-out: B1R Ant. r [10 μM] % Inhibition

For `CN(C)C(c1ccccc1)C1CCC(NC(=O)COCCN(C)S(=O)(=O)c2c(Cl)cc(Cl)cc2Cl)C1` (stereo not drawn) [Example 615, N-[3-(dimethylaminophenylmethyl)-cyclopentyl]-2-{2-[(2,4,6-trichlorobenzenesulfonyl)-methylamino]-ethoxy}-acetamide], the inhibition at 10 µM was 26%.
